Data on 1 compound can be found in patent US9078874B2, “Composition and method for treating cognitive impairments in down syndrom subjects” (Centre National De La Recherche Scientifique—CNRS, priority 2009, dated 2015).

In data set [1] the test system is young and elderly subjects. The following applies: cited from earlier work.
For a further data set, the system named is euploid and Ts65Dn mice. As to the kind of experiment: Novel object recognition (NOR) task. It counts as in vivo. The protocol: The testing protocol is a variant of the testing method according to Fernandez et al. 2007. The Object recognition protocol used to study learning and memory was performed on a 10 minutes period between the first presentation of the objects and the change of one object. Euploid and Ts65Dn mice were tested with or without α5IA treatment. The apparatus consisted of a black square arena (50×50 cm) located in a room under weak controlled luminosity (4-6 Lux) and constant 60 dB white noise. The first day, all mice (16 euploid and 16 Ts65Dn mice) were handled by the experimenter in the animal facility 2×3 min to familiarize them with human contact. On day 2, mice were placed for 20 min in the empty arena for getting used to the apparatus and test room. On day 3, four identical objects were placed symmetrically in the corners of the arena, 14 cm from the side walls. […]
During all open field sessions, mice were monitored using a videotracking system (Any-Maze™). Object exploration was manually scored with an ethological keyboard and defined as the orientation of the nose to the object at a distance<6 cm. […]
For the retention phase, the percent of time exploring familiar vs. novel objects was calculated to assess memory performance (a score of 50% corresponding to equal exploration times of the two objects indicated no object memory). […]
Discrimination ratio was calculated using the formula: […]

For a further data set, the system named is fos protein. Put plainly: Cerebral fos immunoreactivity after object recognition acquisition. The following applies: 5 mg/kg i.p. It counts as in vivo, mice. The protocol: The mechanism of action of α5IA was investigated by quantifying neuronal activity by measuring production of fos protein in mice subjected to an object recognition task (exploration of a new environment).
The protocol that was used involved treating mice (placebo or drug). 30 minutes later, the mice were subjected to exploring a new environment, a situation in which the animal acquires and stores information spontaneously. This behavioral stimulation activates c-fos gene, and the expression product of this gene (the Fos protein) is then detected by immunohistochemistry and quantified using dedicated image analysis software. […]
Image analysis was performed as follows: regions of interest (ROIs) were photographed using an Olympus BX61 microscope (x10 objective) and fos immunostaining was quantified using a dedicated image processing software which automatically calculated the proportion of fos-stained tissue (p=stained area/total area), providing an unbiased stereological measurement of fos immunoreactivity. Four ROIs were analyzed: posterior cingulate cortex, perirhinal cortex, dentate gyms and CA1 field of the hippocampus. Each ROI was sampled on several serial sections and results were then averaged to give a reliable quantitative evaluation of local fos immunostaining.

The next data set concerns euploid mice. Put plainly: Dose-response in the delayed-matching-to-place task (DMTP). It is filed as in vivo. The following applies: 5 mg/kg, 30 min before testing; versus placebo; p<0.05. As for the experimental part:
FIG. 5 depicts results from a dose-response effect study of α5IA. The optimal α5IA promnesiant dose was determined in mice trained in the DMTP task. FIG. 5A: Schematic representation of the DMTP protocol. Each day, mice underwent 1 acquisition trial and 3 retention trials (inter-trial interval was 60 sec). The position of the platform was changed every day, but remained constant within each session.
To determine the optimal dose of α5IA, a dose-response study was performed in euploid mice trained in the delayed-matching-to-place task (DMTP), a classical learning and memory paradigm used to assess the promnesiant effects of drugs, and in particular of GABAA α5 inverse agonists [ref 8, 9, 11].
Experiments were performed in a Morris water maze (MWM). The maze was a 150-cm diameter pool filled with opacified water kept at 19° C. and equipped with a 9 cm diameter platform submerged 1 cm under the water surface. A total of 27 mice were used. Animals were randomly and equally distributed in 3 groups (placebo, α5IA 1 mg/kg, α5IA 5 mg/kg). Training was performed during 7 days. […] Memory assessment was determined by comparing the distance to reach the platform on the first trial (acquisition trial) and the mean distance traveled in subsequent trials (retention trials).

Data set [2] concerns GABAA receptors α1, α2, α3 and α5 subtypes. The following applies: α1, α2 and α3 subtypes; cited from earlier work.
The target in data set [3] is GABAA receptors α1, α2, α3 and α5 subtypes (Homo sapiens, UniProt P31644). The following applies: α5 subtype; cited from earlier work.
Chain of GABAA receptors α1, α2, α3 and α5 subtypes (Homo sapiens, UniProt P31644) (P31644 32-462): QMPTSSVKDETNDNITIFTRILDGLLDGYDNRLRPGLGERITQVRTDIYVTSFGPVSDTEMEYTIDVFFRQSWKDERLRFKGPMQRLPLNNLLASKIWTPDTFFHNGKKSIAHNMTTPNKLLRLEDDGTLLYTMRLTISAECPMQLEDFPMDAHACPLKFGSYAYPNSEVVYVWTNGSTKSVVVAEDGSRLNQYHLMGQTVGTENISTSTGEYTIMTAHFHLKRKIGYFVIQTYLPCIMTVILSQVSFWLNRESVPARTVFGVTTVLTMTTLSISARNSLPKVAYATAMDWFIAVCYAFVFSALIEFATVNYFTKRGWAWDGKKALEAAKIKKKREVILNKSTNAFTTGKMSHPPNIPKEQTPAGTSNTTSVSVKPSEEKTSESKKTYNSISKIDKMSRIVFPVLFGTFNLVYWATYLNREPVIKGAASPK
Chain of GABAA receptors α1, α2, α3 and α5 subtypes (Homo sapiens, UniProt P31644) (P28472 26-473 partner): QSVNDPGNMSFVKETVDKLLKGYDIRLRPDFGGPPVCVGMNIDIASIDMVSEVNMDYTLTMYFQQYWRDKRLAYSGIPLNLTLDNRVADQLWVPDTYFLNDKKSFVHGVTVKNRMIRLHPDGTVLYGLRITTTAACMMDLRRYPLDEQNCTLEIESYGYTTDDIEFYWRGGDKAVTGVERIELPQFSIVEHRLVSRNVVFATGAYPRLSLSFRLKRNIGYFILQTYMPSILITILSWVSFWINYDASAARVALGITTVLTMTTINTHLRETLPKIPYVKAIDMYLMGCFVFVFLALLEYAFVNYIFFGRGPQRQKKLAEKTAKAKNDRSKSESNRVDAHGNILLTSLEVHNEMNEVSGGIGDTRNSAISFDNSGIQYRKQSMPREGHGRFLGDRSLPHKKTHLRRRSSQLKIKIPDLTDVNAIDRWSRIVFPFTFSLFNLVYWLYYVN
Chain of GABAA receptors α1, α2, α3 and α5 subtypes (Homo sapiens, UniProt P31644) (P18507 40-475 partner): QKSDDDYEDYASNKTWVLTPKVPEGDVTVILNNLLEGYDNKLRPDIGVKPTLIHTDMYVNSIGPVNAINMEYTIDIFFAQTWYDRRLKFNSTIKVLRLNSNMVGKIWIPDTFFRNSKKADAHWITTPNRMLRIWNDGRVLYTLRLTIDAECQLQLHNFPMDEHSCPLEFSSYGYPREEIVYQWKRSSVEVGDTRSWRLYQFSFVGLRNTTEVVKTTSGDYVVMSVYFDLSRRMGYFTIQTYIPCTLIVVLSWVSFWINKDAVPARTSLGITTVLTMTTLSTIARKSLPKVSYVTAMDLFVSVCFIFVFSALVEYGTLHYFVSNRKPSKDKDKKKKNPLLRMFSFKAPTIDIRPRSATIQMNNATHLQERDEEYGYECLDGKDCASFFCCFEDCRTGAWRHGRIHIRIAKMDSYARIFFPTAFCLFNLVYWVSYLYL

Take `Cc1cc(-c2nnc3c4ccccc4c(OCc4cn(C)nn4)nn23)no1` [α5IA, 3-(5-methylisoxazol-3-yl)-6-[(1-methyl-1,2,3-triazol-4-yl)methyloxy]-1,2,4-triazolo[3,4-a]phthalazine]: the tolerability entry in data set [1] was “well tolerated”. Also, in the data set on euploid and Ts65Dn mice (Ts65Dn mice), the “object recognition performance compared to wild-type mice receiving a placebo” value was “above-normal object recognition performance”. For the same compound, the recognition performance entry in the data set on euploid and Ts65Dn mice (i.p. 5 mg/kg, 30 min before acquisition, both euploid and Ts65Dn mice) is listed as “largely improved their recognition performance”. Further, the “fos immunoreactivity relative to placebo-treated littermates” value in the data set with fos protein (all brain regions sampled, except the dentate gyrus) is “significant increase of fos”. The “neuronal activity (fos) in the dentate gyrus” value in the data set on fos protein (dentate gyrus) is given as “not significantly affected”. Besides, the “Performance (distance to platform) between acquisition and retention trials” value in the data set on euploid mice is recorded as “significantly higher performance”. The “efficacy at the α1, α2 and α3 subtypes” value in data set [2] is listed as “low or antagonist efficacy”. Besides, the “efficacy at the α5 subtype” value in data set [3] is listed as “exhibits inverse agonism”.
